According to publication PMC10669340, “Bioactive Compounds from an Endophytic Pezicula sp. Showing Antagonistic Effects against the Ash Dieback Pathogen” (Biomolecules, 2023):
≈ marks a conversion by molar mass, not a printed value. Where two headings read alike, the source gives them in different places. Marks after values point to notes of the source that are not given here.

Assays:
[1] = test system: Mycobacterium smegmatis ATCC 700084; assay: Antimicrobial serial dilution assay (MIC); format: cell-based; details: Mycobacterium smegmatis ATCC 700084; n.i.: no inhibition
Method: (§1) The antimicrobial activity (minimum inhibitory concentration, MIC) of the compounds was determined against Acinetobacter baumannii DSM 30008, Bacillus subtilis DSM 10, Chromobacterium violaceum DSM 30191, Escherichia coli DSM 1116, Mycobacterium smegmatis ATCC 700084, Pseudomonas aeruginosa PA14, Staphylococcus aureus DSM 346, Candida albicans DSM1665, Mucor hiemalis DSM 2656, Pichia anomala DSM 6766, Rhodotorula glutinis DSM 10134 and Schizosaccharomyces pombe DSM 70572 in a serial dilution assay as previously described.

[2] = test system: Bacillus subtilis DSM 10; assay: Antimicrobial serial dilution assay (MIC); format: cell-based; details: Bacillus subtilis DSM 10, n.i.: no inhibition
Method: as §1

[3] = test system: Chromobacterium violaceum DSM 30191; assay: Antimicrobial serial dilution assay (MIC); format: cell-based; details: for Minimum inhibitory concentration (MIC): n.i.: no inhibition
Method: as §1

[4] = test system: Staphylococcus aureus DSM 1104 preformed biofilm; assay: Biofilm assay, dispersal of preformed biofilm; format: cell-based; set-up: Antibiofilm activity, preformed S. aureus: unit not given here; details: for Antibiofilm activity, preformed S. aureus: (/) no activity; for efficacy of biofilm eradication, preformed biofilms of S. aureus: concentrations between 15.6 µg/mL–125 µg/mL
Method: Staphylococcus aureus DSM 1104 from −20 °C stock was cultured in 25 mL CASO (Casein–Peptone Soymeal–Peptone; peptone from casein 15 g/L, peptone from soy flour 5 g/L, NaCl 5 g/L, pH 7.3) medium at 37 °C at 100 rpm in 250 mL for 20 h. The precultured suspension of S. aureus was adjusted so that its OD600 matched the turbidity of a 0.001 McFarland standard. S. aureus was incubated in 96-well tissue microtiter plates (TPP tissue culture ref.no 92196, Switzerland) for 24 h at 150 rpm in […] CASO medium with 4% glucose broth. The supernatant was removed from the wells and 150 μL of the respective media (fresh) was added to the wells, together with the serially diluted compounds (250–2 μg/mL). The plates were incubated for a further 24 h at 37 °C. Staining of the biofilms was carried out as described previously. Standard deviation (SD) of two repeats with duplicates each were 10% or less. Methanol (2.5%) and microporenic acid A (250–2 μg/mL) were used as solvent and positive controls. Error bars indicate SD with duplicates in two biological repeats.

[5] = test system: Acinetobacter baumannii DSM 30008; assay: Antimicrobial serial dilution assay (MIC); format: cell-based; details: for Minimum inhibitory concentration (MIC): n.i.: no inhibition
Method: as §1

[6] = test system: Pseudomonas aeruginosa PA14; assay: Antimicrobial serial dilution assay (MIC); format: cell-based; details: n.i.: no inhibition
Method: as §1

[7] = test system: Schizosaccharomyces pombe DSM 70572; assay: Antimicrobial serial dilution assay (MIC); format: cell-based; details: Schizosaccharomyces pombe DSM 70572; n.i.: no inhibition
Method: as §1

[8] = test system: Pichia anomala DSM 6766; assay: Antimicrobial serial dilution assay (MIC); format: cell-based; details: Pichia anomala DSM 6766; n.i.: no inhibition
Method: as §1

[9] = test system: Rhodotorula glutinis DSM 10134; assay: Antimicrobial serial dilution assay (MIC); format: cell-based; details: Rhodotorula glutinis DSM 10134; n.i.: no inhibition
Method: as §1

[10] = test system: Escherichia coli DSM 1116; assay: Antimicrobial serial dilution assay (MIC); format: cell-based; details: n.i.: no inhibition
Method: as §1

[11] = test system: Candida albicans DSM1665; assay: Antimicrobial serial dilution assay (MIC); format: cell-based; details: n.i.: no inhibition
Method: as §1

[12] = test system: Staphylococcus aureus DSM 346; assay: Antimicrobial serial dilution assay (MIC); format: cell-based; details: Staphylococcus aureus DSM 346; n.i.: no inhibition
Method: as §1

[13] = test system: Mucor hiemalis DSM 2656; assay: Antimicrobial serial dilution assay (MIC); format: cell-based; details: for Minimum inhibitory concentration (MIC): Mucor hiemalis DSM 2656, n.i.: no inhibition
Method: as §1

[14] = test system: Candida albicans DSM 11225 biofilm; assay: Biofilm assay, inhibition of biofilm formation; format: cell-based; set-up: unit not given here; details: (/) no activity
Method: The stock of fungal pathogen Candida albicans DSM 11225 from −20 °C was cultured in 25 mL YPD (Yeast extract Peptone Dextrose; dextrose 20 g/L, peptone 20 g/L, yeast extract 10 g/L) medium in a 250 mL flask at 30 °C with shaking 100 rpm for 18 h. Turbidity of the broth was measured and diluted to match the turbidity of a 0.05 McFarland standard in RPMI 1640 medium (Gibco, New York, NY, USA, Thermo Fisher Scientific). Afterwards, 150 μL of the fungal dispersion was added into each well of a 96-well microtiter plate (Falcon no. 351172, Thermo Fisher Scientific) and further incubated for 90 min. The supernatant was removed, and the plate was washed once by using PBS buffer. Compounds were serially diluted in 150 μL in fresh medium to concentrations of 250–2 μg/mL. Staining and analysis were conducted as previously described. Methanol (2.5%) and farnesol (250–2 μg/mL) were used as solvent and positive controls. Error bars indicate SD with duplicates in two biological repeats.

[15] = test system: H. fraxineus (isolate RH02-T6-B4-2); assay: Agar disc diffusion assay; format: cell-based, Hymenoscyphus fraxineus; details: 6 mm disc, 7 days, 21 °C
Method: The antifungal activity of the isolated compounds against H. fraxineus was assessed by the disc diffusion method using 9 cm diameter petri dishes as previously described […] Three sterile filter paper discs per plate were gently placed on dried potato–dextrose agar. The fungicide nystatin was applied as the positive control (20 and 50 µg/paper disc) and methanol as the negative control (10 µL/paper disc). The test plates were incubated at 21 °C for 7 days, the inhibition diameters were measured, and the activity was evaluated compared to nystatin.
Figure S44: Agar disc (6 mm diam.) diffusion assay of compound CJ-17,572 (1) against H. fraxineus RH02-T6-B4-2, grown in 9-cm petri dishes on agar-based PD
medium with H. fraxineus, N - positive control nystatin, M - negative control methanol, CJ – 1.
Table S1. Antifungal activity of the compounds 1-6. n.i.: no inhibition, n.t.: not tested.
Compounds Amount ( µg/paper disc)
Peziculastatin n.t. n.i. 8 mm
Mycorrhizin A 19 mm 31 mm n.t.
Cryptosporioptide A n.t. n.i. n.i.
Cryptosporioptide B n.t. n.i. 8 mm
Cryptosporioptide C n.t. n.i. n.i.
Nystatin 21 mm 24 mm n.t.

[16] = MTT cytotoxicity assay; format: cell-based; details: read-out: Cytotoxic activity (IC50)
Method: The in vitro cytotoxicity assay was performed using the MTT (3-(4,5-dimethylthiayol-2-yl)-2,5-diphenyltetrazolium bromide) test in 96-well microtiter plates as previously described.

[17] = 50 µg/paper disc, n.i.: no inhibition
[18] = 100 µg/paper disc, n.i.: no inhibition

Compound: NC[C@H]1O[C@H](O[C@H]2[C@H](O)[C@@H](O[C@H]3O[C@H](CO)[C@@H](O)[C@H](N)[C@H]3O)[C@H](N)C[C@@H]2N)[C@H](O)[C@@H](O)[C@@H]1O [kanamycin, reference compound]
- Minimum inhibitory concentration (MIC) [1]: 1.7 ^d µg/mL

Compound: CN(C)[C@@H]1C(O)=C(C(N)=O)C(=O)[C@@]2(O)C(O)=C3C(=O)c4c(O)cccc4[C@@](C)(O)[C@H]3[C@H](O)[C@@H]12 [oxytetracycline, reference compound]
- MIC ([2]; DSM10, read-out: Minimum inhibitory concentration (MIC)): 16.6 µg/mL (≈ 36.1 µM)
- MIC ([3]; DSM30191, n.i.: no inhibition, read-out: Minimum inhibitory concentration (MIC)): 0.83 µg/mL (≈ 1.8 µM)

Compound: CCC(C(=O)O)C(=O)OC1C2(C)Oc3ccc(-c4ccc5c(c4O)C(=O)C4=C(O)C6OC6(C)C(OC(=O)C(CC)C(=O)O)C4(C)O5)c(O)c3C(=O)C2=C(O)C2OC21C (stereo not drawn) [Compound 6, Cryptosporioptide C]
- Antibiofilm activity, preformed S. aureus ([4]; 2 µg/mL): 39
- Antibiofilm activity, preformed S. aureus ([4]; 3.9 µg/mL): 49
- Antibiofilm activity, preformed S. aureus ([4]; 7.8 µg/mL): 68
- Antibiofilm activity, preformed S. aureus ([4]; 15.6 µg/mL): 72
- Antibiofilm activity, preformed S. aureus ([4]; 31.3 µg/mL): 78
- Antibiofilm activity, preformed S. aureus ([4]; 62.5 µg/mL): 78
- Antibiofilm activity, preformed S. aureus ([4]; 125 µg/mL): 77
- Antibiofilm activity, preformed S. aureus ([4]; 250 µg/mL): 23
- efficacy of biofilm eradication, preformed biofilms of S. aureus [4]: 70–80%
- dispersal effects on preformed biofilms of S. aureus ([4]; even up to 2 µg/mL): 40%
- Minimum inhibitory concentration (MIC) [5]: n.i.
- Minimum inhibitory concentration (MIC) [6]: n.i.
- Minimum inhibitory concentration (MIC) [7]: n.i.
- Minimum inhibitory concentration (MIC) [8]: n.i.
- Minimum inhibitory concentration (MIC) [9]: n.i.
- Minimum inhibitory concentration (MIC) [10]: n.i.
- Minimum inhibitory concentration (MIC) [11]: n.i.
- Minimum inhibitory concentration (MIC) [2]: n.i.
- Minimum inhibitory concentration (MIC) [1]: n.i.
- Minimum inhibitory concentration (MIC) [3]: n.i.
- Minimum inhibitory concentration (MIC) [12]: n.i.
- MIC ([13]; Mucor hiemalis, DSM2656, read-out: Minimum inhibitory concentration (MIC)): 66.6 µg/mL (≈ 82.6 µM)
- Antibiofilm activity, C. albicans ([14]; 62.5 µg/mL): 40
- Antibiofilm activity, C. albicans ([14]; 125 µg/mL): 62
- Antibiofilm activity, C. albicans ([14]; 250 µg/mL): 78
- Antifungal activity, inhibition diameter [15, 17]: n.i.
- Antifungal activity, inhibition diameter [15, 18]: n.i.

Compound: O=C(O)c1cn(C2CC2)c2cc(N3CCNCC3)c(F)cc2c1=O [ciprofloxacin, reference compound]
- MIC ([5]; DSM30008, n.i.: no inhibition, read-out: Minimum inhibitory concentration (MIC)): 0.26 µg/mL (≈ 0.785 µM)

Compound: C/C(=C\c1csc(C)n1)[C@@H]1C[C@@H]2O[C@]2(C)CCC[C@H](C)[C@H](O)[C@@H](C)C(=O)C(C)(C)[C@@H](O)CC(=O)O1 [epothilone B, reference compound]
- IC50 ([16]; human, A431): 0.065 nM
- IC50 ([16]; human, A549): 0.053 nM
- IC50 ([16]; human, KB3.1, n.c.: no cytotoxicity): 0.045 nM
- IC50 ([16]; human, MCF-7): 0.083 nM
- IC50 ([16]; human, PC-3): 0.28 nM
- IC50 ([16]; human, SKOV-3): 0.18 nM
- IC50 ([16]; mouse, L929, n.c.: no cytotoxicity): 0.43 nM

Compound: C[C@@H]1[C@H](O)[C@@H](C)/C=C/C=C/CC/C=C/C=C/C=C/C=C/C(O[C@H]2O[C@H](C)[C@@H](O)[C@H](N)[C@@H]2O)CC2O[C@](O)(CC(O)C(O)CCC(O)CC(O)CC(O)CC(=O)O[C@H]1C)CC(O)C2C(=O)O (stereo partly drawn) [nystatin, reference compound]
- Minimum inhibitory concentration (MIC) [7]: 16.6 ^e µg/mL
- Minimum inhibitory concentration (MIC) [8]: 16.6 ^e µg/mL
- Minimum inhibitory concentration (MIC) [9]: 8.3 ^e µg/mL
- Minimum inhibitory concentration (MIC) [11]: 16.6 ^e µg/mL
- Minimum inhibitory concentration (MIC) [13]: 16.6 ^e µg/mL
- Antifungal activity, inhibition diameter ([15]; 20 µg/paper disc): 21 mm
- Antifungal activity, inhibition diameter [15, 17]: 24 mm

Compound: CC(C)=CCC/C(C)=C/CC/C(C)=C/CO [Farnesol, farnesol, reference compound]
- Antibiofilm activity, C. albicans ([14]; 15.6 µg/mL): 55
- Antibiofilm activity, C. albicans ([14]; 31.3 µg/mL): 66
- Antibiofilm activity, C. albicans ([14]; 62.5 µg/mL): 71
- Antibiofilm activity, C. albicans ([14]; 250 µg/mL): 81

Compound: gentamycin [reference compound]
- Minimum inhibitory concentration (MIC) [6]: 0.21 ^b µg/mL
- Minimum inhibitory concentration (MIC) [10]: 0.83 ^b µg/mL
- Minimum inhibitory concentration (MIC) [12]: 0.21 ^b µg/mL

Compound: CCC(C(=O)O)C(=O)OC1C2(C)Oc3ccc(-c4ccc5c(c4O)C(=O)C4=C(O)C6OC6(C)C(OC(=O)CC(=O)O)C4(C)O5)c(O)c3C(=O)C2=C(O)C2OC21C (stereo not drawn) [Compound 5, Cryptosporioptide B]
- Antibiofilm activity, preformed S. aureus ([4]; 7.8 µg/mL): 54
- Antibiofilm activity, preformed S. aureus ([4]; 15.6 µg/mL): 75
- Antibiofilm activity, preformed S. aureus ([4]; 62.5 µg/mL): 83
- Antibiofilm activity, preformed S. aureus ([4]; 125 µg/mL): 81
- Antibiofilm activity, preformed S. aureus ([4]; 250 µg/mL): 49
- efficacy of biofilm eradication, preformed biofilms of S. aureus [4]: 70–80%
- Minimum inhibitory concentration (MIC) [5]: n.i.
- Minimum inhibitory concentration (MIC) [6]: n.i.
- Minimum inhibitory concentration (MIC) [7]: n.i.
- Minimum inhibitory concentration (MIC) [8]: n.i.
- Minimum inhibitory concentration (MIC) [9]: n.i.
- Minimum inhibitory concentration (MIC) [10]: n.i.
- Minimum inhibitory concentration (MIC) [11]: n.i.
- Minimum inhibitory concentration (MIC) [2]: n.i.
- Minimum inhibitory concentration (MIC) [1]: n.i.
- Minimum inhibitory concentration (MIC) [3]: n.i.
- Minimum inhibitory concentration (MIC) [12]: n.i.
- Minimum inhibitory concentration (MIC) [13]: n.i.
- Antibiofilm activity, C. albicans ([14]; 62.5 µg/mL): 49
- Antibiofilm activity, C. albicans ([14]; 125 µg/mL): 50
- Antibiofilm activity, C. albicans ([14]; 250 µg/mL): 74
- Antifungal activity, inhibition diameter [15, 17]: n.i.
- Antifungal activity, inhibition diameter [15, 18]: 8 mm
